In patent US4378344A, “Method and apparatus for performing multiple, simultaneous in vitro diagnostic tests using a solid phase system” (priority 1979, dated 1983):
Where two headings read alike, the source gives them in different places.

Columns and labels:
anti-digoxin [1] = assay: simultaneous assay: 125I-digoxin bound to anti-digoxin coated tube (Example 6); format: binding, rabbit
Method: (§1) Digoxin and thyroxin were utilized as the antigens. 1.1 ml of 0.01 M PBS at pH 7.4 and also containing 5 mg/ml thimersol was added to the appropriate tubes. 50 μl of a digoxin solution and 50 μl of a T4 solution were added to each tube.
(§2) The following series of assays were conducted.
(A) anti-digoxin coated tube;
(C) anti-digoxin coated tube and uncoated stick; and,
(§3) (D) anti-digoxin coated tube and anti-T4 coated stick.
(§4) The remainder of the values are based on these two values.

anti-digoxin [2] = conditions: clinical sample
Method: The same series of assays were conducted as described in Example 6 and expressed in the same manner.

anti-T4 [3] = assay: simultaneous assay: 125I-thyroxin bound to anti-T4 coated stick (Example 6); format: binding, rabbit
Method: as §1, §2
(B) uncoated tube and anti-T4 coated stick
as §3, §4

anti-T4 [4] = assay: simultaneous assay in clinical serum sample: 125I-thyroxin bound to anti-T4 coated stick (Example 7); format: binding, rabbit

^125 I-Digoxin
% ^125 I-Digoxin Bound (anti-digoxin [1]; tube 1 (digoxin 0, T4 0 ng/ml; no 125I-T4), series A, no stick, set as 100%): 100% | % ^125 I-Digoxin Bound (anti-digoxin [1]; tube 1 (digoxin 0, T4 0 ng/ml; no 125I-T4), series C, uncoated stick): 118% | % ^125 I-Digoxin Bound (anti-digoxin [1]; tube 1 (digoxin 0, T4 0 ng/ml; no 125I-T4), series D, anti-T4 stick): 126% | % ^125 I-Digoxin Bound (anti-digoxin [1]; tube 3 (digoxin 0, T4 0 ng/ml; with 125I-T4), series A, no stick): 98% | % ^125 I-Digoxin Bound (anti-digoxin [1]; tube 3 (digoxin 0, T4 0 ng/ml; with 125I-T4), series C, uncoated stick): 109% | % ^125 I-Digoxin Bound (anti-digoxin [1]; tube 3 (digoxin 0, T4 0 ng/ml; with 125I-T4), series D, anti-T4 stick): 121% | % ^125 I-Digoxin Bound (anti-digoxin [1]; tube 4 (digoxin 0, T4 30 ng/ml; no 125I-T4), series A, no stick): 97% | % ^125 I-Digoxin Bound (anti-digoxin [1]; tube 4 (digoxin 0, T4 30 ng/ml; no 125I-T4), series C, uncoated stick): 111% | % ^125 I-Digoxin Bound (anti-digoxin [1]; tube 4 (digoxin 0, T4 30 ng/ml; no 125I-T4), series D, anti-T4 stick): 109% | % ^125 I-Digoxin Bound (anti-digoxin [1]; tube 6 (digoxin 0, T4 30 ng/ml; with 125I-T4), series A, no stick): 100% | % ^125 I-Digoxin Bound (anti-digoxin [1]; tube 6 (digoxin 0, T4 30 ng/ml; with 125I-T4), series C, uncoated stick): 104% | % ^125 I-Digoxin Bound (anti-digoxin [1]; tube 6 (digoxin 0, T4 30 ng/ml; with 125I-T4), series D, anti-T4 stick): 110% | % ^125 I-Digoxin Bound (anti-digoxin [1]; tube 7 (digoxin 4, T4 0 ng/ml; no 125I-T4), series A, no stick): 66% | % ^125 I-Digoxin Bound (anti-digoxin [1]; tube 7 (digoxin 4, T4 0 ng/ml; no 125I-T4), series C, uncoated stick): 76% | % ^125 I-Digoxin Bound (anti-digoxin [1]; tube 7 (digoxin 4, T4 0 ng/ml; no 125I-T4), series D, anti-T4 stick): 68% | % ^125 I-Digoxin Bound (anti-digoxin [1]; tube 9 (digoxin 4, T4 0 ng/ml; with 125I-T4), series A, no stick): 69% | % ^125 I-Digoxin Bound (anti-digoxin [1]; tube 9 (digoxin 4, T4 0 ng/ml; with 125I-T4), series C, uncoated stick): 77% | % ^125 I-Digoxin Bound (anti-digoxin [1]; tube 9 (digoxin 4, T4 0 ng/ml; with 125I-T4), series D, anti-T4 stick): 70% | % ^125 I-Digoxin Bound (anti-digoxin [1]; tube 10 (digoxin 4, T4 30 ng/ml; no 125I-T4), series A, no stick): 62% | % ^125 I-Digoxin Bound (anti-digoxin [1]; tube 10 (digoxin 4, T4 30 ng/ml; no 125I-T4), series C, uncoated stick): 76% | % ^125 I-Digoxin Bound (anti-digoxin [1]; tube 10 (digoxin 4, T4 30 ng/ml; no 125I-T4), series D, anti-T4 stick): 69% | % ^125 I-Digoxin Bound (anti-digoxin [1]; tube 12 (digoxin 4, T4 30 ng/ml; with 125I-T4), series A, no stick): 63% | % ^125 I-Digoxin Bound (anti-digoxin [1]; tube 12 (digoxin 4, T4 30 ng/ml; with 125I-T4), series C, uncoated stick): 73% | % ^125 I-Digoxin Bound (anti-digoxin [1]; tube 12 (digoxin 4, T4 30 ng/ml; with 125I-T4), series D, anti-T4 stick): 68% | % ^125 I-Digoxin Bound (anti-digoxin [2]; tube 1 (no 125I-T4), series A, no stick, set as 100%): 100% | % ^125 I-Digoxin Bound (anti-digoxin [2]; tube 1 (no 125I-T4), series C, uncoated stick): 95% | % ^125 I-Digoxin Bound (anti-digoxin [2]; tube 1 (no 125I-T4), series D, anti-T4 stick): 114% | % ^125 I-Digoxin Bound (anti-digoxin [2]; tube 3 (with 125I-T4), series A, no stick): 98% | % ^125 I-Digoxin Bound (anti-digoxin [2]; tube 3 (with 125I-T4), series C, uncoated stick): 135% | % ^125 I-Digoxin Bound (anti-digoxin [2]; tube 3 (with 125I-T4), series D, anti-T4 stick): 116%

N[C@@H](Cc1cc(I)c(Oc2cc(I)c(O)c(I)c2)c(I)c1)C(=O)O [T4, thyroxin]
T4 binding to the anti-T4 coated stick (anti-T4 [3]; when an anti-digoxin coated tube is also present): no significant difference | T4 binding to the anti-T4 coated stick (anti-T4 [3]; when digoxin, 125I-digoxin or both are present): no significant difference

C[C@H]1O[C@@H](O[C@H]2[C@@H](O)C[C@H](O[C@H]3[C@@H](O)C[C@H](O[C@H]4CC[C@@]5(C)[C@H](CC[C@@H]6[C@@H]5C[C@@H](O)[C@]5(C)[C@@H](C7=CC(=O)OC7)CC[C@]65O)C4)O[C@@H]3C)O[C@@H]2C)C[C@H](O)[C@@H]1O [digoxin]
digoxin binding to the anti-digoxin coated tube (anti-digoxin [1]; when T4, 125I-T4 or both are present): no significant difference | digoxin binding to the anti-digoxin coated tube (anti-digoxin [1]; when an uncoated stick or an anti-T4 coated stick is also present): no significant difference

N[C@@H](Cc1cc(I)c(Oc2cc(I)c(O)c([125I])c2)c(I)c1)C(=O)O [^125 I-T4, ^125 I-Thyroxin]
% ^125 I-Thyroxin Bound (anti-T4 [4]; stick 2 (no 125I-digoxin), series B, uncoated tube, set as 100%): 100% | % ^125 I-Thyroxin Bound (anti-T4 [4]; stick 2 (no 125I-digoxin), series D, anti-digoxin tube): 102% | % ^125 I-Thyroxin Bound (anti-T4 [4]; stick 3 (with 125I-digoxin), series B, uncoated tube): 146% | % ^125 I-Thyroxin Bound (anti-T4 [4]; stick 3 (with 125I-digoxin), series D, anti-digoxin tube): 143% | % ^125 I-Thyroxin Bound (anti-T4 [3]; stick 2 (digoxin 0, T4 0 ng/ml; no 125I-digoxin), series B, uncoated tube, set as 100%): 100% | % ^125 I-Thyroxin Bound (anti-T4 [3]; stick 2 (digoxin 0, T4 0 ng/ml; no 125I-digoxin), series D, anti-digoxin tube): 96% | % ^125 I-Thyroxin Bound (anti-T4 [3]; stick 3 (digoxin 0, T4 0 ng/ml; with 125I-digoxin), series B, uncoated tube): 106% | % ^125 I-Thyroxin Bound (anti-T4 [3]; stick 3 (digoxin 0, T4 0 ng/ml; with 125I-digoxin), series D, anti-digoxin tube): 106% | % ^125 I-Thyroxin Bound (anti-T4 [3]; stick 5 (digoxin 0, T4 30 ng/ml; no 125I-digoxin), series B, uncoated tube): 81% | % ^125 I-Thyroxin Bound (anti-T4 [3]; stick 5 (digoxin 0, T4 30 ng/ml; no 125I-digoxin), series D, anti-digoxin tube): 79% | % ^125 I-Thyroxin Bound (anti-T4 [3]; stick 6 (digoxin 0, T4 30 ng/ml; with 125I-digoxin), series B, uncoated tube): 92% | % ^125 I-Thyroxin Bound (anti-T4 [3]; stick 6 (digoxin 0, T4 30 ng/ml; with 125I-digoxin), series D, anti-digoxin tube): 95% | % ^125 I-Thyroxin Bound (anti-T4 [3]; stick 8 (digoxin 4, T4 0 ng/ml; no 125I-digoxin), series B, uncoated tube): 101% | % ^125 I-Thyroxin Bound (anti-T4 [3]; stick 8 (digoxin 4, T4 0 ng/ml; no 125I-digoxin), series D, anti-digoxin tube): 100% | % ^125 I-Thyroxin Bound (anti-T4 [3]; stick 9 (digoxin 4, T4 0 ng/ml; with 125I-digoxin), series B, uncoated tube): 113% | % ^125 I-Thyroxin Bound (anti-T4 [3]; stick 9 (digoxin 4, T4 0 ng/ml; with 125I-digoxin), series D, anti-digoxin tube): 108% | % ^125 I-Thyroxin Bound (anti-T4 [3]; stick 11 (digoxin 4, T4 30 ng/ml; no 125I-digoxin), series B, uncoated tube): 82% | % ^125 I-Thyroxin Bound (anti-T4 [3]; stick 11 (digoxin 4, T4 30 ng/ml; no 125I-digoxin), series D, anti-digoxin tube): 81% | % ^125 I-Thyroxin Bound (anti-T4 [3]; stick 12 (digoxin 4, T4 30 ng/ml; with 125I-digoxin), series B, uncoated tube): 92% | % ^125 I-Thyroxin Bound (anti-T4 [3]; stick 12 (digoxin 4, T4 30 ng/ml; with 125I-digoxin), series D, anti-digoxin tube): 89%
